For data set [1], the target named is T1, CYP2B6 (Homo sapiens, UniProt P20813).
T1 sequence (P20813 1-491): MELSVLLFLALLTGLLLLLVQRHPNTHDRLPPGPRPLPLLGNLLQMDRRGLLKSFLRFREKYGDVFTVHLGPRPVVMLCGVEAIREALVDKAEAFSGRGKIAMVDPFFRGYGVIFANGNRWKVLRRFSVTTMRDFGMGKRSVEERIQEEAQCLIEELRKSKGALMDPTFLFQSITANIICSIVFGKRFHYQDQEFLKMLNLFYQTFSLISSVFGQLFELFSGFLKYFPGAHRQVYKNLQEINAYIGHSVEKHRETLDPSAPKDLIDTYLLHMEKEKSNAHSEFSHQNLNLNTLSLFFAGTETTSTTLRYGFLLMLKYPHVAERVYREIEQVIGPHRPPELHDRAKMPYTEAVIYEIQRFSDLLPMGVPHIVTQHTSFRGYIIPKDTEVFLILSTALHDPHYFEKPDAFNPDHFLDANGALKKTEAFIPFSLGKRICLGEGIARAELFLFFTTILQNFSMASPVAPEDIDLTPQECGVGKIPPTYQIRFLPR
The experiment in a line: Direct CYP inhibition assay using pooled HLM. As to conditions: read-out: IC50 CYP2B6; pooled HLM; direct inhibition; 95% confidence intervals in parentheses.
Description: (§1) The enzyme reactions were initiated by adding NADPH (1 mM), and the mixtures were incubated at 37 °C for 5 min in a shaking water bath (100 rpm). The reaction was terminated by adding ice-cold acetonitrile (ACN) containing CBZ (100 nM) and 4-methyl-umbelliferone (300 nM) as internal standards (IS).
(§2) The chromatographic separation was performed on an Agilent 1200 series HPLC system (Agilent Technologies, Santa Clara, CA, USA) equipped with an Atlantis^TM dC18 column (2.1 × 50 mm, 3 µm; Waters Corporation, Milford, MA, USA) with a SecuityGuard^TM C18 guard column (2.0 × 4.0 mm; Phenomenex, Torrance, CA, USA). The mobile phases consisted of double-deionized water (DDW) containing 0.1% (v/v) of formic acid (A) and ACN containing 0.1% (v/v) formic acid (B). […] The sample injection volume was 10 µL, and the total run time was 9.0 min. The column and auto-sampler compartments were maintained at 30 °C and 10 °C, respectively, throughout the analysis. The detection was performed using an API4000 Q-TRAP system equipped with a Turbo V Ion Spray^TM source (Applied Biosystems, Foster City, CA, USA). The operating conditions were optimized as follows: ionization voltage: 5500 V for positive-ion mode and −4500 V for negative-ion mode; ion source temperature: 550 °C; nebulizing gas flow: 50 L/min; auxiliary gas flow: 40 L/min; and curtain gas flow: 30 L/min. The samples were analyzed via multiple reaction monitoring (MRM) mode. […] The data acquisition and processing were performed using Analyst^TM software (version 1.5.2; Applied Biosystems, Foster City, CA, USA).

Data set [2] concerns the target T2, CYP2C8 (Homo sapiens, UniProt P10632).
T2 sequence (P10632 1-490): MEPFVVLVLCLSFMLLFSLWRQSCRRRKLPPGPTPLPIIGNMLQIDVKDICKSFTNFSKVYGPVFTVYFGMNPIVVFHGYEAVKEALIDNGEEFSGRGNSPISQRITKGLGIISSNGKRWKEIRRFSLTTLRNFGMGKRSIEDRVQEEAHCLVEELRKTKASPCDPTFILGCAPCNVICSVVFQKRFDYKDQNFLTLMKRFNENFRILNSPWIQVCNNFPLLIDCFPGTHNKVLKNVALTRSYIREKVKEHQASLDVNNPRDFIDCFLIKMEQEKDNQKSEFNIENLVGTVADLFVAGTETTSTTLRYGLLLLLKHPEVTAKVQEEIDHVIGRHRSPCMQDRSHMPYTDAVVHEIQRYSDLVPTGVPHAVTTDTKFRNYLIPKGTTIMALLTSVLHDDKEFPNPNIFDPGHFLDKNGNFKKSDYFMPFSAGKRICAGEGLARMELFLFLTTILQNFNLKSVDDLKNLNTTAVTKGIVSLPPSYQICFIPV
Description: Direct CYP inhibition assay using pooled HLM. Particulars: microsomes.
Description: as §1, §2

Data set [3] concerns the target CYP2E1 (Homo sapiens, UniProt P05181). The experiment in a line: Direct CYP inhibition assay using pooled HLM. Particulars: read-out: IC50 CYP2E1; pooled HLM; direct inhibition; 95% confidence intervals in parentheses.
Description: as §1, §2
In data set [4] the target is CYP2C19 (Homo sapiens, UniProt P33261). The experiment in a line: Direct CYP inhibition assay using pooled HLM. As to conditions: read-out: IC50 CYP2C19; pooled HLM; direct inhibition; 95% confidence intervals in parentheses.
Chain of CYP2C19 (P33261 whole entry): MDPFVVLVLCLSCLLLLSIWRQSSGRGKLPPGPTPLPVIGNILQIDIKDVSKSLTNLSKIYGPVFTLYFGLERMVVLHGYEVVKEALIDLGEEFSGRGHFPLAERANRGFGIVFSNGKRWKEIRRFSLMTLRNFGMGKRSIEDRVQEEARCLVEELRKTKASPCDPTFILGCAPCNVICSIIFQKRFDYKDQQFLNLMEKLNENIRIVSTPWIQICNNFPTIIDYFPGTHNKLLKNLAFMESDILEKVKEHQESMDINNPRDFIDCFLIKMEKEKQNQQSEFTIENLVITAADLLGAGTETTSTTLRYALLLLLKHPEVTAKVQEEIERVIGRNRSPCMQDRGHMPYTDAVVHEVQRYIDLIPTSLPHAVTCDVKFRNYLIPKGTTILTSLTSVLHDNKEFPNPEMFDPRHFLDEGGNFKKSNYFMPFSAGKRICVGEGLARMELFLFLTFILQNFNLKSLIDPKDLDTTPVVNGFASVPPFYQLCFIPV
Description: as §1, §2
The subject of data set [5] is CYP enzymes. The experiment in a line: Direct CYP inhibition assay using pooled HLM, all CYP enzymes tested. As to conditions: read-out: IC50 values, range over all CYP enzymes tested (pan-CYP inhibitory activities). It is filed as in vitro ADME, human.
Description: as §1
The chromatographic separation was performed on an Agilent 1200 series HPLC system (Agilent Technologies, Santa Clara, CA, USA) equipped with an Atlantis^TM dC18 column (2.1 × 50 mm, 3 µm; Waters Corporation, Milford, MA, USA) with a SecuityGuard^TM C18 guard column (2.0 × 4.0 mm; Phenomenex, Torrance, CA, USA). The mobile phases consisted of double-deionized water (DDW) containing 0.1% (v/v) of formic acid (A) and ACN containing 0.1% (v/v) formic acid (B). […] The sample injection volume was 10 µL, and the total run time was 9.0 min. The column and auto-sampler compartments were maintained at 30 °C and 10 °C, respectively, throughout the analysis. The detection was performed using an API4000 Q-TRAP system equipped with a Turbo V Ion Spray^TM source (Applied Biosystems, Foster City, CA, USA). […] The samples were analyzed via multiple reaction monitoring (MRM) mode. […]
In data set [6] the target is CYP2D6 (Homo sapiens, UniProt P10635). The experiment in a line: Direct CYP inhibition assay using pooled HLM. As to conditions: microsomes.
Chain of CYP2D6 (P10635 whole entry): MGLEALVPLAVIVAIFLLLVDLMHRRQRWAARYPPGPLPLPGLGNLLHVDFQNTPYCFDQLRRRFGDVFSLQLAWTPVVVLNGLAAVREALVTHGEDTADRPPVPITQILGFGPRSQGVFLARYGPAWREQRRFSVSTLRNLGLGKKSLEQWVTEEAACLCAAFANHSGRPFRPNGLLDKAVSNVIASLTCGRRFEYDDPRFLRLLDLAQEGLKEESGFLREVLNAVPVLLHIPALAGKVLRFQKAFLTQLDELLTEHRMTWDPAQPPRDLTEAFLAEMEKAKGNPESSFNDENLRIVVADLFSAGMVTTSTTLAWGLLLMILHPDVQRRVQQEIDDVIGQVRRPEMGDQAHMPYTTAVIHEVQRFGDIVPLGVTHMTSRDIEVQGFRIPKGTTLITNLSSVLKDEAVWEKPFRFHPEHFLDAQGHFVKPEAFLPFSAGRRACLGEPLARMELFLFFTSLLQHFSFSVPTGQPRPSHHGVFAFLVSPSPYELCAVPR
Description: as §1, §2
For data set [7], the target named is T3, CYP1A2 (Homo sapiens, UniProt P05177).
T3 sequence (P05177 1-516): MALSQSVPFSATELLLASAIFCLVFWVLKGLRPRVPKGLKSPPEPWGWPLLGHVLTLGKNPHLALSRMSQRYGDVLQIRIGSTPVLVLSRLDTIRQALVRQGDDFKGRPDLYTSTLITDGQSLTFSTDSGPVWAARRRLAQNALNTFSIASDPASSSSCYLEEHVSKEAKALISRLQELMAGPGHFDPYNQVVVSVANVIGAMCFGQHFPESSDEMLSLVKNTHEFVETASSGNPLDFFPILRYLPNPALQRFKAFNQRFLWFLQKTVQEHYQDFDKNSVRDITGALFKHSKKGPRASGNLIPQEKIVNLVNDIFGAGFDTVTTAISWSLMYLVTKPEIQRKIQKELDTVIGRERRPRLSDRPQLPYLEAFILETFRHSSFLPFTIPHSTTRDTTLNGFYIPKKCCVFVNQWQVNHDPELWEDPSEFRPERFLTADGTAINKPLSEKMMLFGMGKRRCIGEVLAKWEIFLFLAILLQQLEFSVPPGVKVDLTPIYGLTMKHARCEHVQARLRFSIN
The experiment in a line: Direct CYP inhibition assay using pooled HLM. Particulars: microsomes.
Description: as §1, §2

Data set [8] concerns the target T4, CYP2A6 (Homo sapiens, UniProt P11509).
T4 sequence (P11509 1-494): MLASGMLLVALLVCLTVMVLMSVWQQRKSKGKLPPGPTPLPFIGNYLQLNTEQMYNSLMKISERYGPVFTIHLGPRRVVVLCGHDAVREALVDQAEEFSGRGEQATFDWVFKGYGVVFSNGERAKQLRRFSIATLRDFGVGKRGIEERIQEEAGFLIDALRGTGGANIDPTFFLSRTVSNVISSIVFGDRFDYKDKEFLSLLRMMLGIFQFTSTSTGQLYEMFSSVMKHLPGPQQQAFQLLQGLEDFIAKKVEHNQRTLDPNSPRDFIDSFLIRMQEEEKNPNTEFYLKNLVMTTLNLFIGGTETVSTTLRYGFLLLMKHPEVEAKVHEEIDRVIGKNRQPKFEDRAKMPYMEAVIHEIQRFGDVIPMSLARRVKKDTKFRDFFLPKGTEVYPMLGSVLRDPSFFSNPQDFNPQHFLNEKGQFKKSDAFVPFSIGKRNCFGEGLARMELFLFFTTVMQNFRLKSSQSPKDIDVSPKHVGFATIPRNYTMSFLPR
The experiment in a line: Direct CYP inhibition assay using pooled HLM. Particulars: microsomes.
Description: as §1, §2

In data set [9] the target is CYP2C9 (Homo sapiens, UniProt P11712). The experiment in a line: Direct CYP inhibition assay using pooled HLM. As to conditions: microsomes.
Chain of CYP2C9 (P11712 whole entry): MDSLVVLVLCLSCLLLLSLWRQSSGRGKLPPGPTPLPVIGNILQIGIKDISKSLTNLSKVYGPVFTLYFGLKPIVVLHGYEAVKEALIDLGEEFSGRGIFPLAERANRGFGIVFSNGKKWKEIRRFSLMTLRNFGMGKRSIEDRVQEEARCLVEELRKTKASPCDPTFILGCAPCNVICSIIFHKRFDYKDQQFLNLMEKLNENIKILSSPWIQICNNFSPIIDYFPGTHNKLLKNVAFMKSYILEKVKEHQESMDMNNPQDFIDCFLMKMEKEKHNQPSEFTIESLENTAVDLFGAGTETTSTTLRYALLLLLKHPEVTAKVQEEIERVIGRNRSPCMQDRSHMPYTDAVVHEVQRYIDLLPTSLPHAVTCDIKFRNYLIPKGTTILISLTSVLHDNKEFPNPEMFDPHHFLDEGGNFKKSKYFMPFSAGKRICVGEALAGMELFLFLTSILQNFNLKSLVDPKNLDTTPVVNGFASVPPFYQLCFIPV
Description: as §1, §2

We go through 1 compound from paper PMC7600264, “Quasi-Irreversible Inhibition of CYP2D6 by Berberine” (Pharmaceutics, 2020).

Chain of CYP2E1 (P05181 whole entry): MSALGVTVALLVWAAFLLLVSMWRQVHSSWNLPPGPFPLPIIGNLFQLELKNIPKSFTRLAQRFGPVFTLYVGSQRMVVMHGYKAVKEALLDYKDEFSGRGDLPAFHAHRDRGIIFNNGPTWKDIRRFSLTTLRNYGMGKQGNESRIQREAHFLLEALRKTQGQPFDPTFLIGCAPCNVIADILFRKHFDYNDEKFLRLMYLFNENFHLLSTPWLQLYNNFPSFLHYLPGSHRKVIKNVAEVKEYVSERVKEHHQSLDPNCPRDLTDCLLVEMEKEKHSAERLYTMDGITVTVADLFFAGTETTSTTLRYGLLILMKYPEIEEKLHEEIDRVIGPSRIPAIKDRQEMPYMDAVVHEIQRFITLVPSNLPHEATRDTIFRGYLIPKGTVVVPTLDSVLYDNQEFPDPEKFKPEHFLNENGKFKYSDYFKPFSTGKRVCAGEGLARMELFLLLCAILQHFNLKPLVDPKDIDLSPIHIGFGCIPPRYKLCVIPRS

Regarding `COc1ccc2c(c1O)CN1CCc3cc4c(cc3C1C2)OCO4` (stereo not drawn) [TRB, Tetrahydroberberrubine·acetate], the IC50 (commonly the point on the concentration scale where inhibition reaches its midpoint) in data set [1] was 9.6 µM; in [2], 9.5 µM; in [3], 2.7 µM; in [4], 5.4 µM; in [5], 2.7 to 9.6 µM; in [6], 3.4 µM. Besides, the IC50 in [7] stood at 6.9 µM; in data set [8], 4.7 µM; in data set [9], 6.5 µM.
